Data published in patent US20240009165A1, “GRISEOFULVIN AS AN ADJUNCT DRUG FOR THE TREATMENT OF CEREBRAL AND SEVERE MALARIA” (priority 2020, published 2024).

How the values were obtained:
[1] = tested on: P. berghei ANKA; assay: Cerebral malaria (CM) protection and mortality of PbWT-infected mice treated with griseofulvin; type: in vivo
Source text: The present invention evaluated the potential of griseofulvin in preventing CM and treated WT-infected C57BL/6 mice from day 4 when the blood parasitemia was around 2%, and examined for CM pathogenesis. […] While ˜80% of the control mice succumbed to CM within day 10, more than 80% of the griseofulvin-treated mice were protected from CM. […] While the anemia mortality in CM-escaped control mice occurred within day 17, more than 80% of the griseofulvin-treated mice could survive beyond day 20 with almost 50% of them surviving even beyond day 24. […] To confirm that the CM protection is due to inhibition of parasite heme synthesis, the present invention analyzed heme synthesis in griseofulvin-treated and -untreated WT parasites by incubating the in vivo-treated pRBCs in vitro with ^14C-ALA (committed precursor of heme synthesis) for 9 h. There was around 60% decrease in the ^14C-labelling of free heme in griseofulvin-treated parasites. […] As observed for the KO parasites, the total Hz content in the griseofulvin-treated parasites was around 50-60% less when compared with untreated parasites and there was also close to 60% decrease in the free heme levels.
(§1) Routine propagation of P. berghei in mice and CM experiments. P. berghei ANKA WT and KO parasites were propagated in C57BL/6 male/female mice of 7-8 weeks old. Peripheral blood parasitemia was monitored by performing light microscopy for Giemsa stained thin blood smears prepared from tail vein blood. When the blood parasitemia was around 10%, 10^5 P. berghei ANKA WT or 10^5/10^7 ALAS/FC KO parasites were collected and injected intraperitoneally in 7-8 weeks old C57BL/6 male/female naïve mice to initiate CM experiments. Growth curve analysis was carried out by monitoring the blood parasitemia. The development and progression of ECM were monitored by examining RMCBS for neurological symptoms. To assess BBB integrity, Evans blue uptake assays were carried out by injecting 200 μl of 2% Evans blue in PBS intravenously and examining the extravasation of dye after one hour in the brain of the infected mice that were transcardially perfused with PBS. The extent of BBB damage was quantified by incubating the brain samples in formamide at 37° C. for 48 h, extracting the Evans blue and measuring the absorbance at 620 nm.
Griseofulvin treatment in mice. Griseofulvin was prepared by dissolving 1 or 2 mg in 40 μl DMSO and then making up the volume to 200 μl with 10% solutol HS 15 in saline. The mixture was vortexed thoroughly for 10 min to form an emulsion and injected intraperitoneally into the mice. All single dose injections were carried out at 06:00 h and double dose injections were carried out at 06:00 h and 18:00 h for the respective days. […]

[2] = tested on: P. berghei ANKA; assay: Histochemical and immunofluorescence analyses of brain sections; type: in vivo; details: griseofulvin-treated WT-infected mice
Experimental: Histological and immunofluorescence analyses of cerebral pathology in the brain of infected mice. For H&E staining to assess vascular blockage, hemorrhages and demyelination, brain samples were fixed with formalin for 72 hours at room temperature. After dehydrating with ethanol and treating with xylene, paraffin embedded blocks were made and sections of 7 μm thickness were prepared using rotary microtome. The sections were then processed and stained with H&E using standard protocols. Immunohistochemical analysis of IgG extravasation in the brain sections was carried out as described. Brain sections of 30 μm thickness was antigen retrieved by treating them at 95° C. for 30 min in sodium citrate buffer pH 6.0, followed by blocking with 3% H2O2 at room temperature for 30 min to prevent endogenous peroxidase activity. The sections were then incubated with HRP-conjugated goat anti-mouse IgG at 1:250 dilution in PBS containing 0.3% Triton X-100 and 0.1% BSA, followed by developing with diaminobenzidine tetrahydrochloride and counterstaining with hematoxilin. Immunofluorescence analysis of brain sections for parasite sequestration was carried out by fixing the brain samples in 4% paraformaldehyde in PBS containing 20% sucrose for 24 h at 4° C. and cryoprotecting them for 48 h in PBS containing 20% sucrose. Coronal sections of 30 μm thickness was prepared using cryostat microtome and antigen retrieval was carried out by treating them at 95° C. for 30 min in sodium citrate buffer pH 9.0. After blocking with 1% BSA, the sections were incubated with anti-CD31 mouse monoclonal antibody conjugated with Alexa Fluor 594 and anti-PbGAPDH rabbit polyclonal serum or anti-mouse CD3 rat monoclonal antibody for 16 h at 4° C. The sections were then treated with FITC-conjugated donkey anti-rabbit IgG or FITC-conjugated goat anti-rat IgG (1:200 dilution), followed by 4′,6-diamidino-2-phenylindole (DAPI) staining. Anti-mouse β-APP rabbit polyclonal antibody was used in 1:200 dilution.

[3] = tested on: hemozoin (Hz) formation; assay: Hemozoin and free heme estimation in parasites; type: in vivo, P. berghei
Experimental: Heme, Hz, hemoglobin and hemopexin estimations. Free heme levels in the plasma samples of WT- and KO-infected mice were quantified using Hemin colorimetric assays. The assay is specific for free heme and it utilizes peroxidase activity of hemin to facilitate the conversion of a colorless probe to a strongly colored compound with absorbance at 570 nm. The quantification of free heme in the parasite lysates was carried out by resuspending the parasite pellets in 5 volumes of hypotonic lysis buffer containing 5 mM Tris pH 7.5 with protease inhibitors and incubating them in ice for 30 min. The lysates were then centrifuged at 20,000 g for 20 min, 4° C., and the supernatants obtained were used for free heme estimation as mentioned above for the plasma samples. The Hz content of the WT and KO parasite pellets was estimated as described. The parasite pellet was resuspended in 1 ml of 100 mM sodium acetate buffer, pH 5.0 and left at 37° C. for overnight, followed by centrifugation at 10,000 g for 5 min. The resultant pellet was resuspended in 100 mM Tris buffer pH 8.0 containing 2.5% SDS and incubated at 37° C. for 30 min, followed by centrifugation at 10,000 g for 5 min. The pellet obtained was washed once with 100 mM alkaline bicarbonate pH 9.2 and then with distilled water. The final Hz pellet was dissolved in 100 mM NaOH containing 2.5% SDS, and the absorbance was measured at 405 nm. The supernatants of sodium acetate and Tris SDS steps were collected to estimate the protein content by Micro BCA protein assay kit and heme content of the Hz was expressed per mg of total protein. […] After repeating this step thrice, the pellets were solubilized in 100 mM NaOH containing 2% SDS and 3 mM EDTA, and the absorbance was measured at 405 nm. In parallel, the parasite load in the organs was examined by quantitative PCR (qPCR) analysis carried out with Pb18SrRNA primers for the total RNA isolated from 30 mg tissue of the organs. […] Hemoglobin and hemopexin levels in the plasma samples of WT- and KO-infected mice were measured by ELISA.

[4] = tested on: Plasmodium falciparum; details: humans infected with Plasmodium falciparum; reference (34); cited from earlier work
[5] = tested on: P. berghei ANKA; assay: Plasma heme, hemopexin and hemoglobin estimation in infected mice; type: in vivo; details: griseofulvin-treated WT-infected mice
Experimental: Heme, Hz, hemoglobin and hemopexin estimations. Free heme levels in the plasma samples of WT- and KO-infected mice were quantified using Hemin colorimetric assays. The assay is specific for free heme and it utilizes peroxidase activity of hemin to facilitate the conversion of a colorless probe to a strongly colored compound with absorbance at 570 nm. The quantification of free heme in the parasite lysates was carried out by resuspending the parasite pellets in 5 volumes of hypotonic lysis buffer containing 5 mM Tris pH 7.5 with protease inhibitors and incubating them in ice for 30 min. The lysates were then centrifuged at 20,000 g for 20 min, 4° C., and the supernatants obtained were used for free heme estimation as mentioned above for the plasma samples. The Hz content of the WT and KO parasite pellets was estimated as described. The parasite pellet was resuspended in 1 ml of 100 mM sodium acetate buffer, pH 5.0 and left at 37° C. for overnight, followed by centrifugation at 10,000 g for 5 min. The resultant pellet was resuspended in 100 mM Tris buffer pH 8.0 containing 2.5% SDS and incubated at 37° C. for 30 min, followed by centrifugation at 10,000 g for 5 min. The pellet obtained was washed once with 100 mM alkaline bicarbonate pH 9.2 and then with distilled water. The final Hz pellet was dissolved in 100 mM NaOH containing 2.5% SDS, and the absorbance was measured at 405 nm. The supernatants of sodium acetate and Tris SDS steps were collected to estimate the protein content by Micro BCA protein assay kit and heme content of the Hz was expressed per mg of total protein. To estimate the Hz content in the spleen and liver of the WT- and KO-infected mice, 50 mg tissue of the respective organs was homogenized in 50 mM Tris pH 8.0 containing 50 mM NaCl, 5 mM CaCl2 and 1% Triton X-100, and incubated for 12 h at 37° C. in the presence of proteinase K. The lysates were sonicated and centrifuged at 15,000 g for 30 min. The pellets obtained were resuspended with 100 mM sodium bicarbonate containing 2% SDS and sonicated, followed by centrifugation at 15,000 g for 15 min. After repeating this step thrice, the pellets were solubilized in 100 mM NaOH containing 2% SDS and 3 mM EDTA, and the absorbance was measured at 405 nm. In parallel, the parasite load in the organs was examined by quantitative PCR (qPCR) analysis carried out with Pb18SrRNA primers for the total RNA isolated from 30 mg tissue of the organs. After normalizing with respect to the parasite load, the total heme content of the Hz isolated was expressed per mg weight of the organ. Hemoglobin and hemopexin levels in the plasma samples of WT- and KO-infected mice were measured by ELISA.

[6] = tested on: P. berghei ANKA; assay: Growth curve analysis (peripheral blood parasitemia) in treated mice; type: in vivo; details: 2 mg dose per day on day 4, 5, 6, 7 and 8; C57BL/6 mice
Source text: The present invention evaluated the potential of griseofulvin in preventing CM and treated WT-infected C57BL/6 mice from day 4 when the blood parasitemia was around 2%, and examined for CM pathogenesis. […] While ˜80% of the control mice succumbed to CM within day 10, more than 80% of the griseofulvin-treated mice were protected from CM. […] While the anemia mortality in CM-escaped control mice occurred within day 17, more than 80% of the griseofulvin-treated mice could survive beyond day 20 with almost 50% of them surviving even beyond day 24. […] To confirm that the CM protection is due to inhibition of parasite heme synthesis, the present invention analyzed heme synthesis in griseofulvin-treated and -untreated WT parasites by incubating the in vivo-treated pRBCs in vitro with ^14C-ALA (committed precursor of heme synthesis) for 9 h. […]
Routine propagation of P. berghei in mice and CM experiments. […] Peripheral blood parasitemia was monitored by performing light microscopy for Giemsa stained thin blood smears prepared from tail vein blood. […] The development and progression of ECM were monitored by examining RMCBS for neurological symptoms. […] The extent of BBB damage was quantified by incubating the brain samples in formamide at 37° C. for 48 h, extracting the Evans blue and measuring the absorbance at 620 nm. […]

[7] = tested on: parasite heme synthesis; assay: 14C-ALA labelling of free heme in in vivo-treated pRBCs; type: cell-based, P. berghei; details: in vivo-treated pRBCs incubated in vitro with 14C-ALA for 9 h; vs untreated WT parasites
Source text: The present invention evaluated the potential of griseofulvin in preventing CM and treated WT-infected C57BL/6 mice from day 4 when the blood parasitemia was around 2%, and examined for CM pathogenesis. […] While ˜80% of the control mice succumbed to CM within day 10, more than 80% of the griseofulvin-treated mice were protected from CM. […] While the anemia mortality in CM-escaped control mice occurred within day 17, more than 80% of the griseofulvin-treated mice could survive beyond day 20 with almost 50% of them surviving even beyond day 24. […]
Labelling studies with ^14C-ALA. […] For ^14C-ALA labelling, blood samples were collected from griseofulvin treated and control WT-infected mice around 16:00 h and the labelling was carried out for 9 h at a radioactivity of […]. […] The upper phase was separated, dried under nitrogen stream, dissolved in methanol and analysed by TLC on silica gel using the mobile phase 2,6-lutidine and water (5:3 v/v) in ammonia atmosphere. The intensity of radiolabelling was scanned using Biomolecular Imager by exposing the TLC sheets to phosphorimager screen and the radioactive counts were measured.

[8] = tested on: P. berghei ANKA; assay: Evans blue extravasation in the brain (BBB integrity); type: in vivo; details: griseofulvin-treated WT-infected mice; brain on day 8 post-infection
Source text: as §1

[9] = tested on: P. berghei ANKA; assay: α,β-arteether alone or with griseofulvin in preventing CM in mice; type: in vivo
Experimental: Griseofulvin treatment in mice. Griseofulvin was prepared by dissolving 1 or 2 mg in 40 μl DMSO and then making up the volume to 200 μl with 10% solutol HS 15 in saline. The mixture was vortexed thoroughly for 10 min to form an emulsion and injected intraperitoneally into the mice. All single dose injections were carried out at 06:00 h and double dose injections were carried out at 06:00 h and 18:00 h for the respective days. Control mice were injected with the solvent. α,β-arteether (E MAL) was administered intramuscularly. For experiments involving the combination of α,β-arteether and griseofulvin, α,β-arteether was administered intramuscularly at 06:00 h on day 6, followed by two doses of griseofulvin at 24 h interval (at 09:00 h on day 6 and 7).

[10] = griseofulvin-treated WT parasites vs untreated

Row | Structure (SMILES) | mice protected from CM ([1]; WT-infected C57BL/6 mice, single dose of 2 mg/day i.p. from day 4 until day 8, ~80% of control mice succumbed to CM within day 10) | delay in mortality due to anemia ([1]; griseofulvin-treated WT-infected C57BL/6 mice vs CM-escaped control mice) | mice surviving beyond day 24 ([1]; griseofulvin-treated WT-infected mice) | mice surviving beyond day 20 ([1]; griseofulvin-treated WT-infected mice, anemia mortality in CM-escaped control mice within day 17) | intracerebral hemorrhages in brain sections ([2]; H&E) | accumulation of CD3+ T cells in the cerebral vasculature ([2]; immunofluorescence) | accumulation of parasites in the cerebral vasculature ([2]; immunofluorescence) | Hz content by light microscopy ([3]; Giemsa-stained peripheral smears and paraformaldehyde-fixed pRBCs of treated mice) | decrease in free heme levels in parasites [3, 10] | total Hz content, less than untreated parasites [3, 10] | in vivo parasite growth in humans [4] | plasma heme/hemopexin ratio [5] | plasma level of Hb [5] | plasma level of heme [5] | plasma level of hemopexin [5] | growth curves of WT parasites in treated and untreated mice [6] | decrease in 14C-labelling of free heme [7] | Evans blue extravasation in the brain [8] | peripheral parasitemia in blood smears ([9]; single intramuscular dose of 0.25 mg/mouse on day 6) | WT-infected mice developing CM ([9]; single intramuscular dose of 0.25 mg/mouse on day 6, parasitemia around 10%)
1 | COC1=CC(=O)C[C@@H](C)[C@]12Oc1c(Cl)c(OC)cc(OC)c1C2=O [griseofulvin] | more than 80% | significant delay | around 50% | more than 80% | absence of intracerebral hemorrhages | lack of accumulation | lack of accumulation | less Hz content | around 60% | 50-60% | did not inhibit the in vivo parasite growth | comparable to that of the KO-infected mice | comparable to that of the KO-infected mice | comparable to that of the KO-infected mice | comparable to that of the KO-infected mice | very much comparable | around 60% | less Evans blue extravasation |  | 
2 | CCO[C@H]1O[C@@H]2O[C@@]3(C)CC[C@H]4[C@H](C)CC[C@@H]([C@H]1C)[C@@]24OO3 [α,β-arteether] |  |  |  |  |  |  |  |  |  |  |  |  |  |  |  |  |  |  | clearance | 60-70%
